# Test results published in the supplement of paper PMC3974653.
# Where a name gives a salt, the structure may show the parent alone.
# Test system: MTT (mouse pheochromocytoma)
# Experiment: IC50 of cell viability (ATP content)
# Details: (24 or 48 h)
# Outline: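 Cells of the MTT mouse pheochromocytoma line, 5 µl per well at 200,000 cells/ml, were grown overnight at 37°C, 5% CO2 in white 1536-well plates with DMEM, 5% FBS and 1% horse serum. Pintool transfer then delivered 23 nl of library compound in DMSO, giving 8 final concentrations from 0.5 nM to 46 µM, for an exposure of 24 or 48 hrs. Luminescence from CellTiter-Glo was read after 15 minutes and referenced to positive-control wells (100%) and DMSO wells (0%). IC50 was calculated with a four-parameter logistic fit.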
row,SMILES,IC50 of cell viability [µM]
1,NCC[C@H](O)C(=O)N[C@@H]1C[C@@H](N)[C@@H](O[C@@H]2O[C@@H](CN)[C@@H](O)[C@@H](O)[C@H]2N)[C@@H](O[C@@H]2O[C@@H](CO)[C@@H](O)[C@H]2O)[C@H]1O [Butirosin disulfate salt],> 46
2,C[C@@H]1[C@H](O)[C@@H](C)/C=C/C=C/C=C/C=C/C=C/C=C/C=C/[C@H](O[C@@H]2O[C@H](C)[C@@H](O)[C@H](N)[C@@H]2O)C[C@@H]2O[C@](O)(C[C@@H](O)C[C@@H](O)[C@H](O)CC[C@@H](O)C[C@@H](O)CC(=O)O[C@H]1C)C[C@H](O)[C@H]2C(=O)O [Amphotericin B],> 46
3,OCc1ccccc1 [Benzyl alcohol],> 46
4,O=C(C[S+]([O-])C(c1ccccc1)c1ccccc1)NO (centres undefined) [ADRAFINILUM],> 46
5,Cn1cnc([N+](=O)[O-])c1Sc1ncnc2nc[nH]c12 [Azathioprine],> 46
6,CNC(=O)NC(O)C(Cl)(Cl)Cl (centres undefined) [MECLORALUREA],> 46
7,O=C1CC2(CCCC2)CC(=O)N1CCCCN1CCN(c2ncccn2)CC1 [BUSPIRONE],> 46
8,ClC1=CC=C2NC(=O)C\N=C(\C3=CC=CC=C3)C2=C1 [Desmethyldiazepam],> 46
9,CCN(CC)CCNC(=O)c1ccc(NC(C)=O)cc1.Cl [ACECAINIDE HYDROCHLORIDE],> 46
10,NCc1ccccc1Sc1ccccc1CO [Bipenamol hydrochloride],> 46
11,CCC(C)(C)c1ccc(O)cc1 [p-tert-Pentylphenol],> 46
12,C=CC[N@@H+]1/C(=C/CO)[C@@H]2C[C@H]3[C@H]1CC[C@]31c3ccccc3N3/C=C4/[C@@H]5C[C@@H]6[C@H](CC[C@@]67c6ccccc6N(/C=C\2[C@H]31)[C@@H]47)[N@@H+](CC=C)/C5=C\CO [Alcuronium chloride],> 46
13,CCCCCCCCCCCC(=O)[O][Sn]([CH2]CCC)([CH2]CCC)[O]C(=O)CCCCCCCCCCC [DIBUTYLTIN DILAURATE],> 46
14,"COC(=O)C1C(OC(=O)c2ccccc2)CC2CCC1N2C (single isomer, unassigned; (-)) [(-)-Cocaine]",> 46
15,CCC(Cc1c(I)cc(I)c(O)c1I)C(=O)O (centres undefined) [Acide iophenoique],> 46
16,CNC1(c2ccccc2Cl)CCCCC1=O (centres undefined) [Cetamina],> 46

row,SMILES,IC50 of cell viability [µM]
1,C[C@@]12CC[C@H]3[C@@H](CC[C@@H]4C[C@H]5S[C@H]5C[C@]43C)[C@H]1CC[C@H]2O [Epitiostanol],> 46
2,COc1ccc(C[C@@H]2c3cc(OC)c(OC)cc3CC[N@@+]2(C)CCC(=O)OCCCCCOC(=O)CC[N@+]2(C)CCc3cc(OC)c(OC)cc3[C@H]2Cc2ccc(OC)c(OC)c2)cc1OC.O=S(=O)([O-])c1ccccc1.O=S(=O)([O-])c1ccccc1 [Atracurium besylate],> 46
3,CCS(=O)(=O)C(C)(C)S(=O)(=O)CC [SULFONMETHANE],> 46
4,N[C@@H](Cc1ccc(N(CCCl)CCCl)cc1)C(=O)O [Melphalan],> 46
5,COc1cccc2c1C(=O)c1c(O)c3c(c(O)c1C2=O)C[C@](O)(C(=O)CO)C[C@@H]3O[C@H]1C[C@H](N)[C@@H](O)[C@H](C)O1 [Adriamycin-DNA hydrochloride],> 46
6,CCC1([C@@H]2O[C@@H]([C@@H]3O[C@](O)(CO)[C@@H](C)C[C@H]3C)C[C@H]2C)CC[C@H]([C@]2(C)CC[C@]3(C[C@@H](O)[C@@H](C)[C@H]([C@H](C)[C@H](OC)[C@H](C)C(=O)[O-])O3)O2)O1.[Na+] (some centres undefined) [Monensin sodium salt],> 46
7,COC(=O)C(c1ccccc1)C1CCCCN1.[Cl-].[H+] (centres undefined) [Methylphenidate hydrochloride],> 46
8,CN(C)C(=O)Oc1ccc[n+](C)c1.[Br-] [PYRIDOSTIGMINE BROMIDE],> 46
9,CCN1CCCC1CNC(=O)c1cc([S+](=O)([O-])CC)c(N)cc1OC (centres undefined) [Amisulpride],> 46
10,C1CCc2nnnn2CC1 [PENTYLENETETRAZOLE],> 46
11,C[C@H](N)C(=O)c1ccccc1 [(S)-(-)-Cathinone],> 46
12,CN1C(=O)CN=C(c2ccccc2)c2cc(Cl)ccc21 [Diazepam],> 46
13,CCN(C(C)=O)c1cccc(-c2ccnc3c(C#N)cnn23)c1 [Zaleplon],> 46
14,COP(=O)(OC)OC=C(Cl)Cl [Dichlorvos (Vapona)],> 46
15,CCN[C@@]1(c2cccs2)CCCCC1=O [Tiletamine hydrochloride],> 46

# Continued, values first:
row,IC50 of cell viability [µM],SMILES
1,> 46,C#C[C@]1(O)CC[C@H]2[C@@H]3CCC4=Cc5oncc5C[C@]4(C)[C@H]3CC[C@@]21C [Danazol]
2,> 46,O=P([O-])(O)C(Sc1ccc(Cl)cc1)P(=O)([O-])O [TILUDRONATE DISODIUM]
3,> 46,CCOc1ccc(N[S+](=O)([O-])c2ccc(N)cc2)nn1 [Sulfaethoxypyridazine]
4,> 46,CC1(C)C(C(=O)[O-])N2C(=O)CC2[S+]1(=O)[O-] (centres undefined) [Sulbactam]
5,> 46,COC(F)(F)C(Cl)Cl [METHOXYFLURANE]
6,> 46,O=C(C1CCCCC1)N1CC(=O)N2CCc3ccccc3[C@@H]2C1 [Praziquantel]
7,> 46,C/C=C\C(=O)N(CC)c1ccccc1C [Crotamiton]
8,> 46,O=C1CC[C@H](C(=O)N[C@@H]2C[C@H]2c2ccccc2)N1 [ROLICYPRINUM]
9,> 46,O=C(O)/C=C/C(=O)Nc1ccc([S+](=O)([O-])Nc2nccs2)cc1 [Maleilsulfatiazol]
10,> 46,Cc1ccc(C)c(OCCCC(C)(C)C(=O)O)c1 [Gemfibrozil]
11,> 46,CCOC(=O)c1ccc(O)cc1 [Ethylparaben]
12,> 46,CN(C)CC[N]1N=NN=C1SC\C2=C(\[N@]3[C@@H](SC2)[C@H](NC(=O)CC4=CSC(=N4)N)C3=O)C(O)=O [Cefotiam hydrochloride]
13,> 46,CO/N=C(\C(=O)N[C@@H]1C(=O)N2C(C(=O)O)=C(Cn3nnc(C)n3)CS[C@H]12)c1csc(N)n1 [CEFTERAM]
14,> 46,C[C@]12C=CC(=O)N[C@@H]1CC[C@@H]1C2CC[C@]2(C)C(C(=O)Nc3cc(C(F)(F)F)ccc3C(F)(F)F)CC[C@@H]12 (some centres undefined) [Dutasteride]
15,> 46,OC[C@H]1O[C@@H]2O[C@H]3[C@H](O)[C@@H](O)[C@@H](O[C@H]4[C@H](O)[C@@H](O)[C@@H](O[C@H]5[C@H](O)[C@@H](O)[C@@H](O[C@H]6[C@H](O)[C@@H](O)[C@@H](O[C@H]7[C@H](O)[C@@H](O)[C@@H](O[C@H]1[C@H](O)[C@H]2O)O[C@@H]7CO)O[C@@H]6CO)O[C@@H]5CO)O[C@@H]4CO)O[C@@H]3CO [alpha-Cyclodextrin]
16,> 46,COc1cc2c(cc1OC)C(=O)C(CC1CCN(Cc3ccccc3)CC1)C2 (centres undefined) [DONEPEZIL HYDROCHLORIDE]
17,> 46,NCC(=O)O [Glycine]
18,> 46,OCC(O)C(O)C(O)C(O)CO (centres undefined) [SORBITOL]
19,> 46,N\C1=N\C2=C(N=C[N]2COC(CO)CO)C(=O)N1 [Ganciclovir]

row,IC50 of cell viability [µM],SMILES
1,> 46,"Cn1c(=O)c2c(ncn2C)n(C)c1=O [Caffeine, citrated]"
2,> 46,COc1ccc(Cl)cc1C(=O)NCCc1ccc([S+](=O)([O-])NC(=O)NC2CCCCC2)cc1 [GLYBURIDE]
3,> 46,Cc1nc2c([nH]1)c(=O)n(C)c(=O)n2Cc1ccco1 [FURAFYLLINE]
4,> 46,C=CC[N+]1([C@H]2C[C@H]3[C@@H]4CC[C@H]5C[C@H](O)[C@@H](N6CCOCC6)C[C@]5(C)[C@H]4CC[C@]3(C)[C@H]2OC(C)=O)CCCC1 [ROCURONIUM BROMIDE]
5,> 46,OC(CCN1CCCCC1)(c1ccccc1)C1CC2C=CC1C2 (centres undefined) [Biperiden]
6,> 46,O=C1/C(=C2\Nc3ccc([S+](=O)([O-])O)cc3C2=O)Nc2ccc([S+](=O)([O-])O)cc21 [Indigo carmine]
7,> 46,C[N+](C)(C)CCOC(N)=O [CARBAMYLCHOLINE]
8,> 46,[NH2][Pt]([NH2])([Cl])[Cl] [cis-Dichlorodiamine platinum]
9,> 46,CC(C)(C)NC[C@H](O)COc1cccc2c1C[C@@H](O)[C@H](O)C2 [Nadolol]
10,> 46,[O-]C(=O)C/1=C(CSC2C(NC(=O)CC3=CC=CS3)C(=O)N12)\C[N+]4=CC=CC=C4 (centres undefined) [CEPHALORIDINE]
11,> 46,CCOC(=O)c1ccccc1O [Ethyl salicylate]
12,> 46,O=C(Oc1ccccc1)c1cccc(C(=O)Oc2ccccc2)c1 [Diphenyl isophthalate]
13,> 46,O=C1OC(c2ccc(O)cc2)(c2ccc(O)cc2)c2ccccc21 [Phenolphthalein]
14,> 46,Nc1ccc(O)cc1 [p-Aminophenol]
15,> 46,O\C1=C(/C/C2=C(\O)C3=C(OC2=O)C=CC=C3)C(=O)OC4=C1C=CC=C4 [Dicumarol]
16,> 46,CC1C(=O)C(=O)C=CN1C (centres undefined) [DEFERIPRONE]
17,> 46,OC\1=C(O)\C(=O)\C(=C(O)/C1=O)O [TETROQUINONE]
18,> 46,O=C(Nc1ccc(Cl)c(Cl)c1)C1CC1 [CYPROMID]
19,> 46,CN1CCN(CCCN2c3ccccc3Sc3ccc(Cl)cc32)CC1 [Prochlorperazine dimaleate]
